In patent US7745465B2, “Method of enhancing cellular production of molecular chaperone, hydroxylamine derivatives useful for enhancing the chaperone production and the preparation thereof” (CytRx Corporation, priority 1995, dated 2010):

Legend:
[1] = test system: hsp72; assay: hsp72 in skin of UVB exposed human skin grafted SCID mice (immunofluorescence, Western blot); format: in vivo; details: 5.0 mg/kg i.p.
Protocol: Human skin tissues were grafted onto immunodeficiency (SCID) mice. The experimental protocol involved a treatment of one group of the mice with N-[2-hydroxy-3-(1-piperidinyl)propoxy]-3-piridinecarboxymidoyl chloride maleate (5.0 mg/kg i.p.) and the other with the solvent NaCl solution (300 μl) for 7 days. On day 8, both groups of mice were exposed to UVB light (100 mJ/cm^2) 24 hours subsequent to the exposure, skin biopsies were taken for histological (sections stained with hematoxylin and eosin), and immunohistological examinations (indirect immunoflourescence technique with monoclonal antibody, mAB).
All steps were carried out at room temperature. Skin (about 9-35 mg) was cut into tiny pieces and homogenized with frosted-glass pestle in Eppendorf tubes for 2 min. in ([…]) of 2 times concentrated Laemmli buffer (65 mM Tris-HCI, pH 6.8: 5% β-mercaptoethanol; 2% SDS; 10% glycerol; 0.1% bromophenolblue; all of these materials were Sigma products). Then samples were solubilized for another 60 min. with continuous shaking. The homogenates were centrifuged at 10.000 rpm for 10 min. prior loading to the gel.
Electrophoresis were carried out on 8% polyacrylamide gel with 10 μl of sample per lane at constant voltage (50 V) for overnight. […]

[2] = test system: Hsp90; assay: Western blot of hsp90 in heat shocked H9c2 cells; format: cell-based, rat
Protocol: Experiments set forth in this section were conducted to determine whether N-[2-hydroxy-3-(1-piperidinyl)propoxy]-3-pyridinecarboximidoyl chloride maleate acts to increase the expression of molecular chaperon by a cell. The accumulation of different heat shock proteins subsequent to a period of exposure to heat shock alone, and to heat shock in combination with N-[2-hydroxy-3-(1-piperidinyl)propoxy]-3-pyridinecarboximidoyl chloride maleate administration, was examined by adding 10^−5 M of N-[2-hydroxy-3-(1-piperidinyl)propoxy]-3-pyridinecarboximidoyl chloride maleate before, during, or immediately after hyperthermic treatment of heart myogenic cells (H9c2 cells).
The embryonic rat heart-derived cell line H9c2 was obtained from European Collection of Animal cell Cultures (ECACC) (88092904). The cells were maintained at 37° C. in Dulbecco's modified Eagle's medium (DMEM) supplemented with 10% fetal calf serum (GIBCO) in JOUAN C02 thermostat (5% CO2).
Heat shock was performed at 43° C. in CO2 thermostat for the given time intervals (20, 40, 60, 90 and 120 min.). Cells were then taken back to 37° C. for 6 hours and proteins were extracted for SDS-PAGE. […]
Protein concentration was determined from 5:1 samples by the Bradford assay (M. M. Braford, Anal. Biochem., 72: 248-254 (1976)) in three parallel. […]

O=C(O)/C=C\C(=O)O.OC(CON=C(Cl)c1cccnc1)CN1CCCCC1 (stereo not shown) [N-[2-hydroxy-3-(1-piperidinyl)-propoxy]3-pyridinecarboximidoyl chloride maleate]
amount of hsp72 by Western blotting ([1]; UVB 100 mJ/cm^2, biopsy after 24 h): increased amount of hsp72
hsp72 staining by indirect immunofluorescence ([1]; UVB 100 mJ/cm^2, biopsy after 24 hours): intense, linear staining along the basement membrane zone
level of Hsp90 increased ([2]; added before the heat stress, 20 min. heat treatment): about fivefold
effect on HSP90 level ([2]; added following 43° C. 60 min. treatment): as effective (if not more) as if added before high temperature stress
